In brackets after ≈: the same amount, converted by molar mass. Read-outs that look alike come from different tables or passages of the source.

MIC and IC50 data for 22 molecules are collected here from patent US6821980B1, “Substituted 5-benzyl-2,4-diaminopyrimidines” (Basilea Pharmaceutica AG, priority 1999, dated 2004).

Test [1] has as its system Staphylococcus aureus 101. Description: MIC against Staphylococcus aureus 101. In kind it is cell-based. The settings on record: Staphylococcus aureus 101, MRSA- and trimethoprim-resistant, clinical isolate, read-out: MIC Sa101.
For test [2], the target named is T1, purified DHFR of strain Sp1/1 of Streptococcus pneumoniae (Streptococcus pneumoniae serotype 4, UniProt Q54801).
T1 sequence (Q54801 1-168 I100L): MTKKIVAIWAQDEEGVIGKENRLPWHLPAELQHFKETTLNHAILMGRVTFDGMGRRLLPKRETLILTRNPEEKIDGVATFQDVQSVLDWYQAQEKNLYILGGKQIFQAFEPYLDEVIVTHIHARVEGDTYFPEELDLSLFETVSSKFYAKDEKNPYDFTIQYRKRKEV
In kind it is biochemical. The settings on record: IC50 against purified DHFR of strain Sp1/1.

The subject of test [3] is Streptococcus pneumoniae 1/1. Description: MIC against Streptococcus pneumoniae 1/1. In kind it is cell-based. The settings on record: Streptococcus pneumoniae 1/1, trimethoprim- and penicillin-resistant, serotype 6, clinical isolate, read-out: MIC Sp1/1.
The target in test [4] is purified DHFR of strain 157/4696 of Staphylococcus aureus (Staphylococcus aureus, UniProt P13955). Description: biochemical.
Chain of purified DHFR of strain 157/4696 of Staphylococcus aureus (P13955 whole entry): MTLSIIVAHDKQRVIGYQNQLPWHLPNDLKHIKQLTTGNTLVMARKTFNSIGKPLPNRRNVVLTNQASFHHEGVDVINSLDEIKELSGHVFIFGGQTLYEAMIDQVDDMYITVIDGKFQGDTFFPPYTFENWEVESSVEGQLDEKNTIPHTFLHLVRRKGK

On to `CCOc1cc(Cc2cnc(N)nc2N)cc(OS(=O)(=O)C(C)CC)c1-c1ccc(O)cc1` (stereo not shown) [Example 15-g, Butane-2-sulphonic acid 4-(2,4-diamino-Dyrimidin-5-ylmethyl)-6-ethoxy-4′-hydroxy-biphenyl-2-yl ester], for which the MIC is 2 µg/mL (≈ 4.23 µM) in test [1] (Table 2) and 0.5 µg/mL (≈ 1.06 µM) in test [3] (Table 2). Also, the values for the IC50 in test [2] (Table 2) and in test [4] were 25 nM and 39 nM, respectively.

`CCOc1cc(Cc2cnc(N)nc2N)cc(OS(=O)(=O)CC(C)(C)C)c1-c1ccc(O)cc1` [Example 15-h, 2,2-Dimethyl-propane-1-sulphonic acid 4-(2,4-diamino-pyrimidin-5-ylmethyl)-6-ethoxy-4′-hydroxa-biphenyl-2-yl ester]: the MIC was determined as 4 µg/mL (≈ 8.22 µM) in test [1] (Table 2) and 0.25 µg/mL (≈ 0.514 µM) in test [3] (Table 2). Besides, the figures for the half-maximal inhibitory concentration (IC50) in test [2] (Table 2) and in test [4] were 4.1 nM and 920 nM, respectively.

In the case of `CCOc1cc(Cc2cnc(N)nc2N)cc(OS(=O)C(C)(C)C)c1-c1ccc(O)cc1` (stereo not shown) [Example 15-i, 2-Methyl-propane-2-sulphinic acid 4-(2,4-diamino-pyrimidin-5-ylmethyl)-6-ethoxy-4′-hydroxy-biphenyl-2-yl ester], the figures for the MIC in test [1] (Table 2) and in test [3] (Table 2) were 2 µg/mL (≈ 4.38 µM) and 4 µg/mL (≈ 8.76 µM), respectively. Moreover, the IC50 amounted to 22 nM in test [2] (Table 2) and 81 nM in test [4].

As for `CCOc1cc(Cc2cnc(N)nc2N)cc(OS(=O)(=O)c2ccc(OC)c(F)c2)c1-c1ccc(O)cc1` [Example 15-j, 3-Fluoro-4-methoxy-benzenesulphonic acid 4-(2,4-diamino-pyrimidin-5-ylmethyl)-6-ethoxy-4′-hydroxy-biphenyl-2-yl ester], the figures for the MIC in test [1] (Table 2) and in test [3] (Table 2) were 8 µg/mL (≈ 14.8 µM) and 1 µg/mL (≈ 1.85 µM), respectively. The IC50 was determined as 1.7 nM in test [2] (Table 2) and 550 nM in test [4].

For `CCOc1cc(Cc2cnc(N)nc2N)cc(OS(C)(=O)=O)c1-c1ccc(OC)cc1` [Example 16-a, Methanesulphonic acid 4-(2,4-diamino-pyrimidin-5-ylmethyl)-6-ethoxy-4′-methoxy-biphenyl-2-yl ester], the figures for the MIC in test [1] (Table 2) and in test [3] (Table 2) were 4 µg/mL (≈ 9 µM) and 2 µg/mL (≈ 4.5 µM), respectively. The IC50 was 21 nM in test [2] (Table 2) and 310 nM in test [4].

As for `CCOc1cc(Cc2cnc(N)nc2N)cc(OS(=O)(=O)CC)c1-c1ccc(OC)cc1` [Example 16-b, Ethanesulphonic acid 4-(2,4-diamino-pyrimidin-5-ylmethyl)-6-ethoxy-4′-methoxy-biphenyl-2-yl ester], the MIC in test [1] (Table 2) and in test [3] (Table 2) was 2 µg/mL (≈ 4.36 µM) in each case. In addition, the IC50 amounted to 39 nM in test [2] (Table 2) and 100 nM in test [4].

Regarding `CCOc1cc(Cc2cnc(N)nc2N)cc(OS(=O)(=O)C(C)C)c1-c1ccc(OC)cc1` [Example 16-c, Propane-2-sulphonic acid 4-(2,4-diamino-Ryimidin-5-ylmethyl)-6-ethoxy-4′-methoxy-biphenyl-2-yl ester], the MIC in test [1] (Table 2) and in test [3] (Table 2) was 2 µg/mL (≈ 4.23 µM) throughout. In addition, the IC50 amounted to 18 nM in test [2] (Table 2) and 260 nM in test [4].

With `CCOc1cc(Cc2cnc(N)nc2N)cc(OS(C)(=O)=O)c1-c1ccc2c(c1)OCO2` [Example 17-a, Methanesulphonic acid 2-benzof[1,3]dioxol-5-yl-5-(2,4-diamino-Ryrimidin-5-ylmethyl)-3-ethoxy-phenyl ester], the MIC in test [1] (Table 2) was 4 µg/mL (≈ 8.72 µM); in test [3] (Table 2) it was 2 µg/mL (≈ 4.36 µM). Besides, the figures for the half-inhibitory concentration (IC50) in test [2] (Table 2) and in test [4] were 38 nM and 600 nM, respectively.

For the molecule `CCOc1cc(Cc2cnc(N)nc2N)cc(OS(=O)(=O)CC)c1-c1ccc2c(c1)OCO2` [Example 17-b, Ethanesulphonic acid 2-benzo[1.3]dioxol-5-yl-5-(2,4-diamino-Iyrimidin-5-ylmethyl)-3-ethoxy-phenyl ester], the MIC is 4 µg/mL (≈ 8.47 µM) in test [1] (Table 2) and 2 µg/mL (≈ 4.23 µM) in test [3] (Table 2). Moreover, the IC50 in test [2] (Table 2) is 38 nM; in test [4] it was 370 nM.

As to `CCOc1cc(Cc2cnc(N)nc2N)cc(OS(=O)(=O)C(C)C)c1-c1ccc2c(c1)OCO2` [Example 17-c, Propane-2-sulphonic acid 2-benzo[1.3]dioxol-5-yl-5-(2,4-diamino-pyrimidin-5-ylmethyl)-3-ethoxy-phenyl ester], the MIC in test [1] (Table 2) and in test [3] (Table 2) was 2 µg/mL (≈ 4.11 µM) in each case. In addition, the half-inhibitory concentration (IC50) in test [2] (Table 2) amounted to 33 nM; in test [4], 180 nM.

Turning to `CCCS(=O)(=O)Oc1cc(Cc2cnc(N)nc2N)cc(OCC)c1-c1ccc2c(c1)OCO2` [Example 17-d, Propane-1-sulphonic acid 2-benzo[1.3]dioxol-5-yl-5-(2,4-diamino-pyrimidin-5-ylmethyl)-3-ethoxy-phenyl ester], the values for the MIC in test [1] (Table 2) and in test [3] (Table 2) were 4 µg/mL (≈ 8.22 µM) and 1 µg/mL (≈ 2.06 µM), respectively. The IC50 is 14 nM in test [2] (Table 2) and 150 nM in test [4].

As to `CCOc1cc(Cc2cnc(N)nc2N)cc(OS(=O)(=O)C(C)C)c1-c1ccc(N)cc1` [Example 18, Propane-2-sulphonic acid 4′-amino-4-(2,4-diamino-pyrimidin-5-ylmethyl)-6-ethoxy-biphenyl-2-yl ester], the MIC stood at 2 µg/mL (≈ 4.37 µM) in test [1] (Table 1) and 1 µg/mL (≈ 2.19 µM) in test [3] (Table 1). For the same molecule, the results for the IC50 in test [2] (Table 1) and in test [4] were 5.6 nM and 39 nM, respectively.

As for `CCOc1cc(Cc2cnc(N)nc2N)cc(OS(=O)(=O)N(C)C)c1-c1cccc(N)c1` [Example 19-a, Dimethyl-sulphamic acid 3′-amino-4-(2,4-diamino-pyrimidin-5-ylmethyl)-6-ethoxy-biphenyl-2-yl ester], the MIC in test [1] (Table 2) and in test [3] (Table 2) was 1 µg/mL (≈ 2.18 µM) each time. Also, the results for the IC50 in test [2] (Table 2) and in test [4] were 6.2 nM and 85 nM, respectively.

On to `CCOc1cc(Cc2cnc(N)nc2N)cc(OS(=O)(=O)N2CCCCC2)c1-c1cccc(N)c1` [Example 19-b, Piperidine-1-sulphonic acid 3′-amino-4-(2,4-diamino-pyrimidin-5-ylmethyl)-6-ethoxy-biphenyl-2-yl ester], for which the values for the MIC in test [1] (Table 2) and in test [3] (Table 2) were 1 µg/mL (≈ 2.01 µM) and 0.5 µg/mL (≈ 1 µM), respectively. The IC50 stood at 2.4 nM in test [2] (Table 2) and 130 nM in test [4].

On to `CCOc1cc(Cc2cnc(N)nc2N)cc(OS(=O)(=O)N2CCCC2)c1-c1cccc(N)c1` [Example 19-c, Pyrrolidine-1-sulphonic acid 3′-amino-4-(2,4-diamino-pyrimidin-5-vlmethyl)-6-ethoxy-biphenyl-2-yl ester], for which the results for the MIC in test [1] (Table 2) and in test [3] (Table 2) were 2 µg/mL (≈ 4.13 µM) and 1 µg/mL (≈ 2.06 µM), respectively. In addition, the IC50 was 19 nM in test [2] (Table 2) and 66 nM in test [4].

Regarding `CCOc1cc(Cc2cnc(N)nc2N)cc(OS(=O)(=O)N(C)C(C)C)c1-c1cccc(N)c1` [Example 19-d, N-Isopropyl-N-methyl-sulphamic acid 3′-amino-4-(2,4-diamino-pyrimidin-5-ylmethyl)-6-ethoxy-biphenyl-2-yl ester], the MIC in test [1] (Table 2) and in test [3] (Table 2) was 2 µg/mL (≈ 4.11 µM) each time. Besides, the IC50 came to 8.3 nM in test [2] (Table 2) and 55 nM in test [4].

Regarding `CCOc1cc(Cc2cnc(N)nc2N)cc(OS(=O)(=O)N2CCOCC2)c1-c1cccc(N)c1` [Example 19-e, Morpholine-4-sulphonic acid 3′-amino-4-(2,4-diamino-pyrimidin-5-ylmethyl)-6-ethoxy-biphenyl-2-yl ester], the results for the MIC in test [1] (Table 2) and in test [3] (Table 2) were 2 µg/mL (≈ 4 µM) and 1 µg/mL (≈ 2 µM), respectively. For the same molecule, the IC50 was 3.9 nM in test [2] (Table 2) and 38 nM in test [4].

In the case of `CCOc1cc(Cc2cnc(N)nc2N)cc(OS(=O)(=O)N(C)CC)c1-c1cccc(N)c1` [Example 19-f, N-Ethyl-N-methyl-sulphamic acid 3′-amino-4-(2,4-diamino-vyrimidin-5-ylmethyl)-6-ethoxy-biphenyl-2-yl ester], the MIC in test [1] (Table 2) and in test [3] (Table 2) was 1 µg/mL (≈ 2.12 µM) throughout. Besides, the IC50 is 6.2 nM in test [2] (Table 2) and 82 nM in test [4].

With `CCOc1cc(Cc2cnc(N)nc2N)cc(OS(=O)(=O)N(C)C2CC2)c1-c1cccc(N)c1` [Example 19-g, N-Cclopropyl-N-methyl-sulphamic acid 3′-amino-4-(2,4-diamino-Ryrimidin-5-ylmethyl)-6-ethoxy-biphenyl-2-yl ester], the MIC in test [1] (Table 2) and in test [3] (Table 2) was 1 µg/mL (≈ 2.06 µM) each time. Also, the values for the IC50 in test [2] (Table 2) and in test [4] were 6.8 nM and 56 nM, respectively.

Consider `CCOc1cc(Cc2cnc(N)nc2N)cc(OS(=O)(=O)N(CC)CC)c1-c1cccc(N)c1` [Example 19-h, Diethyl-sulphamic acid 3′-amino-4-(2,4-diamino-pyrimidin-5-ylmethyl)-6-ethoxy-biphenyl-2-yl ester], for which the MIC in test [1] (Table 2) worked out at 2 µg/mL (≈ 4.11 µM); in test [3] (Table 2), 1 µg/mL (≈ 2.06 µM). Moreover, the IC50 in test [2] (Table 2) is 0.55 nM; in test [4] it was 160 nM.

Regarding `CCOc1cc(Cc2cnc(N)nc2N)cc(OS(=O)(=O)N(C)C)c1-c1ccc(O)cc1` [Example 20-a, Dimethyl-sulphamic acid 4-(2,4-diamino-pyrimidin-5-ylmethyl)-6-ethoxy-4′-hydroxy-biphenyl-2-yl ester], the MIC in test [1] (Table 2) was found to be 2 µg/mL (≈ 4.35 µM); in test [3] (Table 2), 1 µg/mL (≈ 2.18 µM). Moreover, the IC50 in test [2] (Table 2) was found to be 7.5 nM; in test [4], 150 nM.

With `CCOc1cc(Cc2cnc(N)nc2N)cc(OS(=O)(=O)N2CCCCC2)c1-c1ccc(O)cc1` [Example 20-b, Piperidine-1-sulphonic acid 4-(2,4-diamino-pyrimidin-5-ylmethyl)-6-ethoxy-4′-hydroxy-biphenyl-2-yl ester], the MIC in test [1] (Table 2) worked out at 1 µg/mL (≈ 2 µM); in test [3] (Table 2), 0.5 µg/mL (≈ 1 µM). The IC50 in test [2] (Table 2) is 1.8 nM; in test [4], 140 nM.
